Assay results from US7842726B2, “Carnitine derivative, salt thereof, external skin preparation and cosmetic material” (Showa Denko K.K., priority 2005, dated 2010).
Counter-ions that a name gives are not always drawn.

What was measured:
Human preadipocytes = assay: Fat breakdown stimulation: triglyceride accumulation in adipocytes (oil red staining, colorimetry); assay type: cell-based; settings: for Triglyceride accumulation: relative to untreated adipocytes (100), 50 μM test substance, 5 days incubation; for effect of stimulating fat metabolism: conclusion from Table 2, 50 μM, 5 days
Description: Human preadipocytes (available from TOYOBO Co., LTD.) were seeded on a 96-well microplate and were incubated at 37° C. and 5% CO2 using human preadipocyte growth medium TAGM (available from TOYOBO Co., LTD.) while renewing the medium every two days. The growth medium was changed to human adipocyte differentiation medium TADM (available from TOYOBO Co., LTD.), and incubation was carried out for 5 days. Subsequently, the medium was changed to an evaluation medium as shown in Table 1 below without or with 50 μM of any of the test substances described below. The incubation was carried out for 5 days.
The adipocytes were washed with Dulbecco's PBS (−) three times and were formalin fixed. The adipocytes were stained with an oil red/water-isopropanol (1/1) solution, and were extracted with isopropanol. Triglyceride accumulated in the adipocytes was determined by a colorimetry method.

[1] = Stability of carnitine derivatives in aqueous solution at 80° C. (RPHPLC); assay type: physicochemical; settings: 0.3% by mass in PBS(-) with 5% 1,2-hexanediol, pH 7, 80° C.; changes with time; FIG. 2
Description: The test substances were each dissolved in Dulbecco's PBS (−) containing 5% by mass of 1,2-hexanediol, followed by adding 1N NaOH to adjust the pH to 7. Consequently, 0.3% by mass solutions of the test substances were prepared. The solutions were tightly encapsulated in glass vials and were temperature controlled at 80° C. in a water bath.
After the lapse of a predetermined time, the solutions were collected and were analyzed by RPHPLC (column: Shodex C8-5B, eluting solution: 70% acetonitrile, flow rate: 1.0 ml/min). The remaining carnitine derivatives originating from the test substances were determined from the UV absorption intensity at 210 nm.

[2] = Percutaneous absorption through three-dimensional human skin model, two-chamber test; assay type: in vitro ADME; settings: 0.3% by mass solution, pH 7, 35° C., after 24 hours; compared with L-carnitine palmitate; FIG. 1
Description: The test substances were each dissolved in Dulbecco's PBS (−) containing 5% by mass of 1,2-hexanediol, followed by adding 1N NaOH to adjust the pH to 7. Consequently, 0.3% by mass solutions of the test substances were prepared. Two chambers were separated through a three-dimensional model of human skin tissue (TESTSKIN™ LSD-d, available from TOYOBO CO., LTD.). 3 ml of each test substance solution was placed into a chamber on the epidermis side, and 3 ml of Dulbecco's PBS (−) was placed into a chamber on the dermis side. They were stirred with magnetic stirrers at 35° C. for 24 hours.
After the lapse of 24 hours, 1 ml of the buffer solution in the dermis-side chamber was collected, and 0.5 ml of the solution collected was analyzed to determine free carnitine. The remaining portion of the solution collected was adjusted to pH 11 with 1N NaOH, was encapsulated in a 1.5 ml screw vial, and was allowed to stand at 80° C. for 6 hours, followed by cooling. The pH of the solution was adjusted to 7 with 1N HCl, whereby all acylcarnitine derivatives were decomposed to free carnitine. These solutions were each combined with 0.02 ml of 1N hydrochloric acid, 0.1 ml of 1.6% by mass 1-aminoanthracene-in acetone solution and 0.1 ml of 16% by mass aqueous EDC (1-ethyl-3-(3-dimethylaminopropyl)carbodiimide hydrochloride) solution, followed by sufficient stirring. The solutions were allowed to stand still at room temperature for 20 minutes and were washed with 3 ml of diethylether. The aqueous phases were filtered and were analyzed by reversed-phase high performance liquid chromatography (RPHPLC) (column: Phenomenex Synergi-RP, eluting solution: 45% acetonitrile, flow rate: 1.0 ml/min) to determine peak intensities assigned to 1-aminoanthracene-modified carnitine (excitation wavelength: 248 nm, fluorescent wavelength: 418 nm). The concentrations of carnitine derivatives and free carnitine originating from the test substances in the solution in the dermis-side chamber were calculated and determined from the aforesaid peak intensities. […]

| SMILES | Triglyceride accumulation (Human preadipocytes) | residual ratio of carnitine derivatives in aqueous solution [1] | effect of stimulating fat metabolism (Human preadipocytes) | L-carnitine concentration (carnitine derivatives and free carnitine) passed to the dermis-side chamber [2] |
| --- | --- | --- | --- | --- |
| CCCCCCCCCCCCCCCC(=O)O[C@H](CC(=O)[O-])C[N+](C)(C)C.Cl [L-carnitine palmitate hydrochloride, reference compound] | 87 | – | – | – |
| CCCCCCC(CCCC)C(=O)OC(CC(=O)[O-])C[N+](C)(C)C [L-carnitine 2-butyloctanoate hydrochloride] | 90 | higher residual ratio and were exceptionally more stable in aqueous solutions than the acylcarnitines having a straight-chain acyl group | good effects of stimulating fat metabolism | comparable or higher L-carnitine concentrations than that obtained with L-carnitine palmitate |
| CCCCCCCCCCCCCCC(C)C(=O)OC(CC(=O)[O-])C[N+](C)(C)C [L-carnitine 2-methylpalmitate hydrochloride] | 89 | higher residual ratio and were exceptionally more stable in aqueous solutions than the acylcarnitines having a straight-chain acyl group | good effects of stimulating fat metabolism | comparable or higher L-carnitine concentrations than that obtained with L-carnitine palmitate |
| CCCCCCCCC(CCCCCC)C(=O)OC(CC(=O)[O-])C[N+](C)(C)C [L-carnitine 2-hexyldecanoate hydrochloride] | 89 | higher residual ratio and were exceptionally more stable in aqueous solutions than the acylcarnitines having a straight-chain acyl group | good effects of stimulating fat metabolism | comparable or higher L-carnitine concentrations than that obtained with L-carnitine palmitate |
| C[N+](C)(C)C[C@H](O)CC(=O)[O-].Cl [L-carnitine hydrochloride, reference compound] | 98 | – | – | – |
